Test results: paper PMC10298512, “Synthesis and Anticancer Evaluation of Novel 7-Aza-Coumarine-3-Carboxamides” (International Journal of Molecular Sciences, 2023)

Legend:
Type in all cases: cell-based, human
M-HeLa = assay: MTT cytotoxicity test, M-HeLa cells; conditions: Homo sapiens, M-HeLa, 24 h incubation, tested at 1–100 µM, three independent experiments, read-out: IC50 (µM) Cancer Cell Lines M-HeLa
HuTu 80 = assay: MTT cytotoxicity test, HuTu 80 cells
Chang liver = assay: MTT cytotoxicity test, normal Chang liver cells; conditions: Homo sapiens, Chang liver, 24 h incubation, tested at 1–100 µM, three independent experiments, read-out: IC50 (µM) Normal Cell Lines Chang Liver
HuTu 80 cells [1] = assay: Cell apoptosis analysis by flow cytometry (annexin V-Alexa Fluor 647 / propidium iodide); conditions: HuTu 80, IC50/2 and IC50 concentrations, 24-h incubation
Source text: Induction of apoptosis is one of the most important mechanisms of anticancer activity. The apoptosis-inducing effect in HuTu 80 cells was studied by flow cytometry using sets of annexin V binding to the apoptosis marker phosphatidylserine. On the surface of the membranes of healthy cells, phosphatidylserine is contained in a minimal amount. Therefore, the interaction of annexin V with these cells is negligible. During apoptosis, phosphatidylserine molecules appear on the cell surface and can interact with the protein. This interaction leads to an increase in the fluorescence intensity of apoptotic cells, which is recorded by a flow cytometer. The apoptosis-inducing effect was evaluated using the example of the leader compound 7r at IC50/2 and IC50 concentrations on the HuTu 80 cell line (Figure 1).
(§1) Cell Culture. HuTu 80 cells at 1 × 10^6 cells/well in a final volume of 2 mL were seeded into six-well plates.
Cell Apoptosis Analysis. […] The cells were harvested at 2000 rpm for 5 min and then washed twice with ice-cold PBS, followed by resuspension in binding buffer. Next, the samples were incubated with 5 μL of annexin V- Alexa Fluor 647 (Sigma-Aldrich, St. Louis, MO, USA) and 5 μL of propidium iodide (Sigma-Aldrich, St. Louis, MO, USA) for 15 min at room temperature in the dark. Finally, the cells were analyzed using flow cytometry (Guava easy Cyte, MERCK, Darmstadt, Germany) within 1 h. […]

HuTu 80 cells [2] = assay: Mitochondrial membrane potential by flow cytometry (JC-10); conditions: HuTu 80, IC50/2 and IC50 concentrations, 24-h incubation
Source text: Violation of the functions of the mitochondria of the cell is one of the most common signs of apoptosis inherent in eukaryotic organisms. With mitochondrial dysfunction, pro-apoptotic factors are released into the cytoplasm—cytochrome c, AIF, Smac/DIABLO, endonuclease G, as well as proforms of caspases 2, 3, and 9—inducing the cascade. The release of these protein factors can be associated both with the rupture of mitochondrial membranes and with the activation of specific channels in the outer mitochondrial membrane. This usually leads to a change in the mitochondrial membrane potential (ΔΨm) due to a change in the permeability of the inner mitochondrial membrane for H+ protons. […] The principle of operation of these dyes is determined by their ability to spontaneously penetrate through the cytoplasmic membranes of cells, as well as the outer and inner membranes of mitochondria and accumulate in areas with a high concentration of protons, that is, under the inner mitochondrial membrane. This effect is accompanied by a change in the intensity of cell fluorescence, which is recorded by cytofluorimetry. […] JC-10 accumulates in the mitochondrial matrix and forms aggregates (J-aggregates) with red fluorescence in normal cells with a high mitochondrial membrane potential. […]

HuTu 80 cells [3] = assay: Detection of intracellular ROS by flow cytometry (CellROX Deep Red); conditions: for Fluorescence intensity (CellROX Deep Red, ROS production): 24 h
Source text: Increased generation of reactive oxygen species (ROS) by the test compounds can also characterize the development of apoptosis along the mitochondrial pathway. Mitochondria are both a potential source and target of ROS. An increase in ROS production leads to the disruption of mitochondrial functions and, subsequently, to irreversible damage and cell death. In this regard, the effect of lead compound 7r at IC50/2 and IC50 concentrations on ROS production in HuTu 80 cells was investigated using a flow cytometry assay and the CellROX® Deep Red flow cytometry kit. […] This indicates an increase in ROS production in the presence of the test compound.
as §1
ROS generation was investigated using a flow cytometry assay and CellROX® Deep Red flow cytometry kit. For this, […] cells were harvested at 2000 rpm for 5 min and then washed twice with ice-cold PBS, followed by resuspension in 0.1 mL of medium without FBS, to which we added 0.2 μL of CellROX® Deep Red (Thermo Fisher Scientific, Waltham, MA, USA) and incubated at 37 °C for 30 min After three times washing the cells and suspending them in PBS, the production of ROS in the cells was immediately monitored using flow cytometer Guava easy Cyte, MERCK).

## Cc1ncc(CCl)c2cc(C(=O)Nc3ccc(S(=O)(=O)c4ccc(NC(=O)c5cc6c(CCl)cnc(C)c6oc5=O)cc4)cc3)c(=O)oc12 [7r, N,N′-(Sulfonylbis(4,1-phenylene))bis(5-(chloromethyl)-8-methyl-2-oxo-2H-pyrano[2,3-c]pyridine-3-carboxamide)]
M-HeLa
  IC50: 64.5 ± 4.5 µM
HuTu 80; Homo sapiens, HuTu80, MTT test, 24 h incubation, tested at 1–100 µM, three independent experiments, read-out: IC50 (µM) Cancer Cell Lines HuTu 80
  IC50: 5.5 ± 0.4 µM
HuTu 80; normal Chang liver vs HuTu 80
  selectivity index, SI = IC50(Chang liver)/IC50(HuTu 80): 14
Chang liver
  IC50: 78 ± 5.9 µM
HuTu 80 cells [1]
  apoptosis-inducing effect (in words): apoptotic effects were registered
HuTu 80 cells [2]
  change in mitochondrial membrane potential (in words): decrease in the mitochondrial membrane potential
HuTu 80 cells [3]; HuTu 80, 2.8 µM (IC50/2)
  Fluorescence intensity (CellROX Deep Red, ROS production): 1400
HuTu 80 cells [3]; HuTu 80, 5.5 µM (IC50)
  Fluorescence intensity (CellROX Deep Red, ROS production): 1700
HuTu 80 cells [3]; HuTu 80, IC50/2 and IC50 concentrations
  ROS production vs control (in words): significant increase
